Patent US7125877B2, “Benzimidazole derivatives” (Banyu Pharmaceutical Co., Ltd., priority 2002, dated 2006)
Where a name gives a salt, the structure may show the parent alone.

Columns and labels:
nociceptin receptor ORL1 [1] = target: T1, nociceptin receptor ORL1 (Homo sapiens, UniProt P41146); assay: Nociceptin receptor binding inhibition assay ([125I]Tyr14-Nociceptin, SPA, CHO/ORL1 membranes); settings: 50 pM [125I]Tyr14-Nociceptin, CHO/ORL1 membrane, 37° C. for 60 minutes; read-out: IC50 value, nociceptin receptor binding inhibition action
T1 construct: expressed in transfected cells
T1 sequence (P41146 whole entry): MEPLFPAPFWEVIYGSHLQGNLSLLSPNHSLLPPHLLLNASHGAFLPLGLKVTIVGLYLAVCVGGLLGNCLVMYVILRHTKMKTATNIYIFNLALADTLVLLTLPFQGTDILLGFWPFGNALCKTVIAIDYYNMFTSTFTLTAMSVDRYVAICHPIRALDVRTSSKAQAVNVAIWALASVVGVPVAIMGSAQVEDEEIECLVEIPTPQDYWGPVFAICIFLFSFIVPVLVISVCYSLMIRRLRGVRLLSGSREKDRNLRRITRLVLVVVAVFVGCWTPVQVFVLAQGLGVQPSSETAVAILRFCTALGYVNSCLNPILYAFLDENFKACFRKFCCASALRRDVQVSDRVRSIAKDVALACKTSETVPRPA
Procedure: Pharmacological Test Example 1 (Nociceptin Receptor Binding Inhibition Assay)
cDNA which codes a human nociceptin receptor gene was cloned into an expression vector pCR3 (Invitrogen) to prepare pCR3/ORL1. Next, pCR3/ORL1 was transfected in CHO cells using a transfectam (Nippongene) to obtain a stable expression strain (CHO/ORL1 cells) having resistance against 1 mg/ml G418. Membrane fractions were prepared from this stable expression strain to carry out a receptor binding assay.
The membrane of 11 μg, 50 pM [^125I] Tyr^14-Nociceptin (Amersham Pharmacia), 1 mg Wheatgerm agglutinin SPA beads (PVT based; Amersham Pharmacia) and each test compound were suspended in an NC buffer (50 mM Hepes, 10 mM sodium chloride, 1 mM magnesium chloride, 2.5 mM calcium chloride, 0.1% BSA, 0.025% bacitracin, pH 7.4) and incubated at 37° C. for 60 minutes, and then the radioactivity was determined. The binding activity to the nociceptin receptor was indicated by the 50% inhibition concentration (IC50 value) of [^125I]Tyr^14-Nociceptin binding by each compound of the present invention.

nociceptin receptor ORL1 [2] = target: T1, nociceptin receptor ORL1; assay: Antagonism against nociceptin-elicited G protein activation (GTPγ[35S] binding, CHO/ORL1 membranes); format: biochemical; settings: 50 nM nociceptin, 200 pM GTPγ[35S], CHO/ORL1 membrane, 25° C. for 150 minutes
Procedure: Pharmacological Test Example 2 (Antagonism Against Nociceptin-elicited G Protein Activation)
CHO cells which stably represented a nociceptin receptor ORL1 were used to investigate the action of each tested compound against nociceptin-elicited G protein activation. A membrane prepared from the CHO/ORL1 cells, 50 nM nociceptin, 200 pM GTPγ[^35S] (NEN), 1.5 mg Wheatgerm agglutinin SPA beads (Amersham Pharmacia) and each of the tested compounds were mixed in a GDP buffer (20 mM Hepes, 100 mM sodium chloride, 10 mM magnesium chloride, 1 mM EDTA, 5 μM GDP, pH 7.4) and incubated at 25° C. for 150 minutes, and then the radioactivity was determined. The antagonism against nociceptin-elicited G protein activation was shown by the 50% inhibition concentration (IC50 value) of each tested compound against GTPγ[^35S] binding.

`CCN1CCN(c2cc3[nH]c(C(=O)N(C)C4CCCCC4)nc3cc2Cl)C(C)C1` (stereo not drawn) [Example 39(2S*)] gave an IC50 (nociceptin receptor ORL1 [1]) of 29000 pM.

`CCN1CCN(c2cc3[nH]c(C(=O)C4(C)CCN(C(C)=O)CC4)nc3cc2C)C(C)C1` (single isomer, unassigned) [Example 27(2S*), 2-(1-acetyl-4-methylpiperidinyl-4-carbonyl)-6-[4-ethyl-(2S*)-2-methylpiperazin-1-yl]-5-methylbenzimidazole] showed an IC50 (nociceptin receptor ORL1 [2]) of 1500 pM and an IC50 (nociceptin receptor ORL1 [1]) of 1900 pM.

`CCN1CCN(c2cc3[nH]c(C(=O)[C@]4(CC)CC[C@@H](NC(=O)OC)CC4)nc3cc2Cl)C(C)C1` (single isomer, unassigned) [Example 15(2S*), 5-chloro-2-[(1,4-trans)-1-ethyl-4-(methoxycarbonylamino)-cyclohexylcarbonyl]-6-[4-ethyl-(2S*)-2-methylpiperazin-1-yl]benzimidazole-fumaric acid salt] showed an IC50 (nociceptin receptor ORL1 [2]) of 420 pM and an IC50 (nociceptin receptor ORL1 [1]) of 190 pM.

Work on `CCN1CCN(c2cc3[nH]c(C(=O)[C@]4(CC)CC[C@@H](NC(=O)OC)CC4)nc3cc2C)C(C)C1` (single isomer, unassigned) [Example 47(2S*), 2-[(1,4-trans)-1-ethyl-4-(methoxycarbonylamino)-cyclohexylcarbonyl]-6-[4-ethyl-(2S*)-2-methylpiperazin-1-yl]-5-methylbenzimidazole-fumaric acid salt] yielded an IC50 (nociceptin receptor ORL1 [2]) of 360 pM and an IC50 (nociceptin receptor ORL1 [1]) of 220 pM.

Compound `CCN1CCN(c2cc3[nH]c(C(=O)[C@]4(C)CC[C@@H](NC(=O)OC)CC4)nc3cc2Cl)C(C)C1` (single isomer, unassigned) [Example 1(2S*), 5-chloro-6-[4-ethyl-(2S*)-2-methylpiperazin-1-yl]-2-[(1,4-trans)-4-methoxycarbonylamino-1-methylcyclohexylcarbonyl]benzimidazole] has an IC50 (nociceptin receptor ORL1 [2]) of 820 pM and an IC50 (nociceptin receptor ORL1 [1]) of 510 pM.

`COC(=O)N[C@H]1CC[C@](C)(C(=O)c2nc3cc(Cl)c(N4CCN(CCO)CC4C)cc3[nH]2)CC1` (single isomer, unassigned) [Example 6(2S*), 5-chloro-6-[4-(2-hydroxyethyl)-(2S*)-2-methylpiperazin-1-yl]-2-[(1,4-trans)-4-methoxycarbonylamino-1-methylcyclohexylcarbonyl]benzimidazole-fumaric acid salt] gave an IC50 (nociceptin receptor ORL1 [2]) of 920 pM and an IC50 (nociceptin receptor ORL1 [1]) of 410 pM.

Compound `CCN1CCN(c2cc3[nH]c(C(=O)[C@]4(C)CC[C@@H](NC(=O)OC)CC4)nc3cc2C)C(C)C1` (single isomer, unassigned) [Example 2(2S*), 6-[4-ethyl-(2S*)-2-methylpiperazin-1-yl]-2-[(1,4-trans)-4-methoxycarbonylamino-1-methylcyclohexylcarbonyl]-5-methylbenzimidazole] has an IC50 (nociceptin receptor ORL1 [2]) of 630 pM and an IC50 (nociceptin receptor ORL1 [1]) of 200 pM.

In the case of `CCN1CCN(c2cc3[nH]c(C(=O)[C@]4(C)CC[C@@](C)(O)CC4)nc3cc2Cl)CC1` [Example 51, 5-chloro-2-[(1,4-trans)-1,4-dimethyl-4-hydroxycyclohexylcarbonyl]-6-(4-ethylpiperazin-1-yl) benzimidazole], the IC50 (nociceptin receptor ORL1 [2]) is reported as 650 pM and the IC50 (nociceptin receptor ORL1 [1]) is reported as 1400 pM.

For `CCN1CCN(c2cc3[nH]c(C(=O)[C@]4(C)CC[C@@H](O)CC4)nc3cc2Cl)C(C)C1` (single isomer, unassigned) [Example 24(2S*), 5-chloro-6-[4-ethyl-(2S*)-2-methylpiperazin-yl]-2-[(1,4-trans)-4-hydroxy-1-methylcyclohexylcarbonyl]benzimidazole], the IC50 (nociceptin receptor ORL1 [2]) was 2800 pM and the IC50 (nociceptin receptor ORL1 [1]) was 2100 pM.

For `COC(=O)N[C@H]1CC[C@](C)(C(=O)c2nc3cc(C)c(N4CCN(CCO)CC4C)cc3[nH]2)CC1` (single isomer, unassigned) [Example 11(2S*), 6-[4-(2-hydroxyethyl)-(2S*)-2-methylpiperazin-1-yl]-2-[(1,4-trans)-4-methoxycarbonylamino-1-methylcyclohexylcarbonyl]-5-methylbenzimidazole-fumaric acid salt], the IC50 (nociceptin receptor ORL1 [2]) was 630 pM and the IC50 (nociceptin receptor ORL1 [1]) was 990 pM.

With `COC[C@]1(C(=O)c2nc3cc(C)c(N4CCN5CCC[C@H]5C4)cc3[nH]2)CC[C@](C)(O)CC1` [Example 53, 6-[(S)-1,4-ziazabicyclo[4.3.0]nonan-4-yl]-2-[(1,4-trans)-4-hydroxy-1-methoxymethyl-4-methylcyclohexylcarbonyl]-5-methylbenzimidazole] the IC50 (nociceptin receptor ORL1 [2]) was 1000 pM and the IC50 (nociceptin receptor ORL1 [1]) was 550 pM.
